Counter-ions that a name gives are not always drawn. Like-named read-outs stand apart in the source and are kept apart here.

Experimental findings from patent US8058243B2, “Method for treating a brain cancer with ifenprodil” (HSC Research and Development Limited Partnership, priority 2006, dated 2011) are described below.

The assay concerns murine neural precursor cells (neurosphere cultures). Put plainly: HTS of LOPAC library against secondary neurosphere cultures, MTT proliferation assay at 3 μM, day 7 (z score, P value). The assay is classed as cell-based, mouse. (In general: Tetrazolium assays rely on reduction of a dye to a coloured formazan, in cell work by metabolically active cells.)
The mark [1] stands for this setting: LOPAC primary screen, neurosphere MTT proliferation, 3 μM, day 7.
[2] abbreviates: yes/no: significantly inhibited neurosphere proliferation (P<0.01) in the primary screen.
The mark [3] stands for this setting: LOPAC screen, neurosphere MTT proliferation, 3 μM, day 7.
Where [4] appears, read: yes/no: significantly inhibited neurosphere proliferation (P<0.01) in primary screen.
Setting [5] is: yes/no: significantly inhibited neurosphere proliferation in primary screen.
Where [6] appears, read: primary LOPAC screen, 3 μM, MTT, neurosphere proliferation.
[7] abbreviates: yes/no: significantly inhibited neurosphere proliferation in the primary screen.
Setting [8] is: yes = significantly inhibited neurosphere proliferation (P<0.01) in the primary screen.
The mark [9] stands for this setting: LOPAC library screen, 3 μM, MTT, secondary neurosphere cultures, day 7.

On to `CCCCN1CCC(COC(=O)c2cc(Cl)c(N)c3c2OCCO3)CC1.Cl` [SB 204070 hydrochloride], for which the “Z Score” value is −5.886. The Z score under setting [1] was −5.886. In addition, under setting [2], the Activity entry is on record as “yes”.

`Cc1cc(NC(=O)Nc2ccc3c(ccn3C)c2)sn1` [SB 204741]: the “Z Score” value was −2.299. This compound also had a Z score under setting [3] of −2.299. The Activity result under setting [4] is “no”.

As to `CC#CCOC(=O)c1c(C)nc2sc3c(c2c1N)CCC(O)C3` (stereo not drawn) [SB 205384], the “Z Score” value turned out to be 0.7968. The same compound had a Z score under setting [1] of 0.797. For the same compound, the Activity result under setting [5] is recorded as “no”.

In the case of `Cn1ccc2cc3c(cc21)CCN3C(=O)Nc1cccnc1` [SB 206553 hydrochloride], the “Z Score” value was −1.365. In addition, the Z score under setting [6] is −1.365. Besides, the Activity entry under setting [7] is “no”.

Turning to `Cn1cc(C2=C(c3ccc(Cl)cc3Cl)C(=O)NC2=O)c2ccccc21` [SB 216763], the “Z Score” value is on record as −2.542. In addition, the Z score under setting [1] was −2.542. The Activity entry under setting [8] is given as “yes”.

As to `COC(=O)[C@H](NC(=O)c1cc(-c2ccccc2)nc2ccccc12)c1ccccc1` [SB 218795], the “Z Score” value came to 1.359. This compound showed a Z score under setting [1] of 1.359. Further, the Activity entry under setting [4] is reported as “no”.

Consider `CC[C@H](NC(=O)c1c(C)c(-c2ccccc2)nc2ccccc12)c1ccccc1` [SB 222200], for which the “Z Score” value was −1.695. Besides, under setting [6], the Z score is reported as −1.695. Also, the Activity result under setting [7] is given as “no”.

For the compound `Cc1nc(-c2ccc(-c3ccc(C(=O)N4CCc5cc6c(cc54)C4(CCN(C)CC4)CO6)cc3)c(C)c2)no1.Cl` [SB 224289 hydrochloride], the “Z Score” value under setting [9] is −4.786. Also, the Z score under setting [1] was −4.786. The Activity entry under setting [2] is “yes”.

As to `COc1cc2c(cc1C(F)(F)F)N(C(=O)Nc1cc(F)cc(-c3cccnc3)c1)CC2` [SB 228357], the “Z Score” value was 0.03426. In addition, the Z score under setting [1] is recorded as 0.034. The Activity result under setting [4] is “no”.

With `CC1CCN(CC[C@H]2CCCN2S(=O)(=O)c2cccc(O)c2)CC1.Cl` [SB 269970 hydrochloride], the “Z Score” value is reported as −1.1. Under setting [1], this compound had a Z score of −1.100. The Activity entry under setting [5] is “no”.

Turning to `O=C1NC(=O)C(c2ccccc2[N+](=O)[O-])=C1Nc1ccc(O)c(Cl)c1` [SB 415286], the “Z Score” value is reported as −2.87. This compound also gave a Z score under setting [1] of −2.870.

`COc1cccc(NC(=O)/C=C/c2ccc(Cl)cc2)c1` [SB-366791]: the “Z Score” value is −1.419. The same compound displayed a Z score under setting [1] of −1.419. For the same compound, under setting [5], the Activity entry is reported as “no”.

With `CC(=O)NNC(=O)N1Cc2ccccc2Oc2ccc(Cl)cc21` [SC 19220], the “Z Score” value was −1.64. The compound further returned a Z score under setting [1] of −1.640. For the same compound, the Activity entry under setting [5] is given as “no”.

Turning to `COc1ccc(-n2nc(C(F)(F)F)cc2-c2ccc(Cl)cc2)cc1` [SC-560], the “Z Score” value is 1.113. This compound also yielded a Z score under setting [1] of 1.113.

In the case of `Cc1nc2c(OCc3ccccc3)cccn2c1CC#N` [SCH-28080], the “Z Score” value was determined as 2.107. Under setting [3], this compound yielded a Z score of 2.107. Also, the Activity result under setting [4] is on record as “no”.

`Br.CN=c1nc(-c2ccccc2)n(-c2ccccc2)s1` [SCH-202676 hydrobromide]: the “Z Score” value was determined as 0.3599. Under setting [1], this compound gave a Z score of 0.360. Moreover, the Activity entry under setting [5] is listed as “no”.

As to `CCN(CC)CCOC(=O)c1cc(Cl)c(N)cc1OC.Cl` [SDZ-205,557 hydrochloride], the “Z Score” value is −2.681. For the same compound, under setting [1], the Z score is listed as −2.681. Moreover, under setting [2], the Activity entry is “yes”.

For `Cc1ccc(O)c(N=Nc2ccccc2)n1` [SIB 1757], the “Z Score” value is on record as −1.752. The Z score under setting [1] was −1.752. Further, the Activity result under setting [5] is reported as “no”.

On to `Cc1cccc(/C=C/c2ccccc2)n1` [SIB 1893], for which the “Z Score” value is listed as −0.848. The Z score under setting [1] is −0.848. Besides, under setting [5], the Activity entry is “no”.

With `Br.CN1CCc2cc(O)c(O)cc2C(c2ccccc2)C1` (stereo not drawn) [SKF 75670 hydrobromide], the “Z Score” value is −0.1421. The same compound gave a Z score under setting [1] of −0.142. Moreover, the Activity result under setting [5] is reported as “no”.

Turning to `Br.Cc1cccc(C2CN(C)CCc3c2cc(O)c(O)c3Cl)c1` (stereo not drawn) [SKF 83959 hydrobromide], the “Z Score” value is −1.357. For the same compound, under setting [1], the Z score is on record as −1.357. Also, the Activity result under setting [5] was “no”.

With `CN1CCc2cccc(Cl)c2CC1` [SKF 86466], the “Z Score” value turned out to be 0.8822. The Z score under setting [1] was 0.882. Moreover, the Activity entry under setting [8] was “no”.

In the case of `Br.Oc1ccc(C2CNCc3sccc32)cc1O` (stereo not drawn) [SKF 89626], the Activity entry is on record as “no” and the “Z Score” value was −0.04369. The Z score under setting [1] is on record as −0.044.

For the compound `Cl.O=C(O)C1CCCN(CCC=C(c2ccccc2)c2ccccc2)C1` (stereo not drawn) [SKF 89976A hydrochloride], the “Z Score” value was −0.2328. Under setting [1], the Z score is on record as −0.233. For the same compound, the Activity result under setting [5] is on record as “no”.

On to `CN(C)CCCCSC(=N)N.Cl.Cl` [SKF 91488 dihydrochloride], for which the “Z Score” value is recorded as −0.766. Further, under setting [1], the Z score is recorded as −0.766. Also, under setting [5], the Activity result is reported as “no”.

Take `CN/C(=N\c1ccc(C2=NNC(=O)CC2C)cc1)NC#N` (stereo not drawn) [SKF 94836]: the “Z Score” value was 0.2458. Also, the Z score under setting [1] was 0.246. In addition, the Activity entry under setting [5] is “no”.

For `O=C(O)/C=C\C(=O)O.O=C(O)/C=C\C(=O)O.c1cc(CN2CCCCC2)cc(OCCCNc2nc3ccccc3s2)c1` [SKF 95282 dimaleate], the Z score under setting [6] turned out to be 0.424. For the same compound, under setting [7], the Activity result is given as “no”.

Regarding `COc1ccc(CCCOC(Cn2ccnc2)c2ccc(OC)cc2)cc1` (stereo not drawn) [SKF 96365], the “Z Score” value is given as −4.497. For the same compound, the Z score under setting [1] is reported as −4.497. Further, the Activity entry under setting [8] was “yes”.

In the case of `CP(=O)(O)CCCN.Cl` [SKF 97541 hydrochloride], the “Z Score” value is −0.7355. Under setting [6], this compound came in with a Z score of −0.736. Moreover, under setting [7], the Activity entry is recorded as “no”.

Regarding `CCCC(C(=O)OCCN(CC)CC)(c1ccccc1)c1ccccc1.Cl` [SKF-525A hydrochloride], the “Z Score” value was −1.928. The Z score under setting [1] is −1.928. Also, under setting [2], the Activity entry is on record as “no”.

On to `O=C(O)/C=C\C(=O)O.O=C(O)/C=C\C(=O)O.c1cc(CN2CCCCC2)cc(OCCCNc2nc3ccccc3s2)c1` [SKY 95282 dimaleate], for which the “Z Score” value came out at 0.4241.

In the case of `C=CCN1C[C@H](C)N([C@H](c2ccc(C(=O)N(CC)CC)cc2)c2cccc(OC)c2)C[C@H]1C` [SNC80], the “Z Score” value is given as −0.4575. In addition, the Z score under setting [1] is −0.457. The Activity entry under setting [5] is given as “no”.

Take `Oc1c2ccccc2c2c3c(cccc13)N=N2` [SP600125]: the “Z Score” value under setting [9] is on record as −1.986. For the same compound, the Z score under setting [3] is −1.986.

Consider `Nc1ncnc2c1ncn2C1CCCO1` (stereo not drawn) [SQ 22536], for which the “Z Score” value turned out to be 0.5616. Besides, under setting [6], the Z score is listed as 0.562. Besides, the Activity entry under setting [7] is listed as “no”.

Regarding `O=C(O)c1ccccc1Nc1cccc(OCc2ccc3ccccc3n2)c1` [SR 2640], the “Z Score” value is given as −1.548. Under setting [1], this compound came in with a Z score of −1.548. The Activity entry under setting [5] is “no”.
